In patent publication US9233977B2, “Leucine-rich repeat kinase enzyme activity” (Merck Sharp & Dohme Corp., priority 2010, dated 2016):

Target: T1, LRRK2 G2019S mutant kinase (Homo sapiens, UniProt Q5S007, G2019S)
T1 construct: GST; purchased Invitrogen PV4882
Test: LRRK2 G2019S LanthaScreen TR-FRET kinase assay
Type: biochemical
Conditions: LRRK2 G2019S GST-tagged protein, 75 nM Fluorescein-ERM (LRRKtide), 100 μM ATP, 1 hour at room temperature; read-out: IC50 (potency)
Experimental: The final solvent concentration in the assay was 1% DMSO. […] Generation of raw data and workup of data to derive the IC50 (potency) and maximal inhibition at concentrations tested were performed using Merck's Assay Data Analyzer (ADA) software.
The IC50 (potency) was evaluated for the example compounds presented above.

T1 sequence (Q5S007 whole entry G2019S): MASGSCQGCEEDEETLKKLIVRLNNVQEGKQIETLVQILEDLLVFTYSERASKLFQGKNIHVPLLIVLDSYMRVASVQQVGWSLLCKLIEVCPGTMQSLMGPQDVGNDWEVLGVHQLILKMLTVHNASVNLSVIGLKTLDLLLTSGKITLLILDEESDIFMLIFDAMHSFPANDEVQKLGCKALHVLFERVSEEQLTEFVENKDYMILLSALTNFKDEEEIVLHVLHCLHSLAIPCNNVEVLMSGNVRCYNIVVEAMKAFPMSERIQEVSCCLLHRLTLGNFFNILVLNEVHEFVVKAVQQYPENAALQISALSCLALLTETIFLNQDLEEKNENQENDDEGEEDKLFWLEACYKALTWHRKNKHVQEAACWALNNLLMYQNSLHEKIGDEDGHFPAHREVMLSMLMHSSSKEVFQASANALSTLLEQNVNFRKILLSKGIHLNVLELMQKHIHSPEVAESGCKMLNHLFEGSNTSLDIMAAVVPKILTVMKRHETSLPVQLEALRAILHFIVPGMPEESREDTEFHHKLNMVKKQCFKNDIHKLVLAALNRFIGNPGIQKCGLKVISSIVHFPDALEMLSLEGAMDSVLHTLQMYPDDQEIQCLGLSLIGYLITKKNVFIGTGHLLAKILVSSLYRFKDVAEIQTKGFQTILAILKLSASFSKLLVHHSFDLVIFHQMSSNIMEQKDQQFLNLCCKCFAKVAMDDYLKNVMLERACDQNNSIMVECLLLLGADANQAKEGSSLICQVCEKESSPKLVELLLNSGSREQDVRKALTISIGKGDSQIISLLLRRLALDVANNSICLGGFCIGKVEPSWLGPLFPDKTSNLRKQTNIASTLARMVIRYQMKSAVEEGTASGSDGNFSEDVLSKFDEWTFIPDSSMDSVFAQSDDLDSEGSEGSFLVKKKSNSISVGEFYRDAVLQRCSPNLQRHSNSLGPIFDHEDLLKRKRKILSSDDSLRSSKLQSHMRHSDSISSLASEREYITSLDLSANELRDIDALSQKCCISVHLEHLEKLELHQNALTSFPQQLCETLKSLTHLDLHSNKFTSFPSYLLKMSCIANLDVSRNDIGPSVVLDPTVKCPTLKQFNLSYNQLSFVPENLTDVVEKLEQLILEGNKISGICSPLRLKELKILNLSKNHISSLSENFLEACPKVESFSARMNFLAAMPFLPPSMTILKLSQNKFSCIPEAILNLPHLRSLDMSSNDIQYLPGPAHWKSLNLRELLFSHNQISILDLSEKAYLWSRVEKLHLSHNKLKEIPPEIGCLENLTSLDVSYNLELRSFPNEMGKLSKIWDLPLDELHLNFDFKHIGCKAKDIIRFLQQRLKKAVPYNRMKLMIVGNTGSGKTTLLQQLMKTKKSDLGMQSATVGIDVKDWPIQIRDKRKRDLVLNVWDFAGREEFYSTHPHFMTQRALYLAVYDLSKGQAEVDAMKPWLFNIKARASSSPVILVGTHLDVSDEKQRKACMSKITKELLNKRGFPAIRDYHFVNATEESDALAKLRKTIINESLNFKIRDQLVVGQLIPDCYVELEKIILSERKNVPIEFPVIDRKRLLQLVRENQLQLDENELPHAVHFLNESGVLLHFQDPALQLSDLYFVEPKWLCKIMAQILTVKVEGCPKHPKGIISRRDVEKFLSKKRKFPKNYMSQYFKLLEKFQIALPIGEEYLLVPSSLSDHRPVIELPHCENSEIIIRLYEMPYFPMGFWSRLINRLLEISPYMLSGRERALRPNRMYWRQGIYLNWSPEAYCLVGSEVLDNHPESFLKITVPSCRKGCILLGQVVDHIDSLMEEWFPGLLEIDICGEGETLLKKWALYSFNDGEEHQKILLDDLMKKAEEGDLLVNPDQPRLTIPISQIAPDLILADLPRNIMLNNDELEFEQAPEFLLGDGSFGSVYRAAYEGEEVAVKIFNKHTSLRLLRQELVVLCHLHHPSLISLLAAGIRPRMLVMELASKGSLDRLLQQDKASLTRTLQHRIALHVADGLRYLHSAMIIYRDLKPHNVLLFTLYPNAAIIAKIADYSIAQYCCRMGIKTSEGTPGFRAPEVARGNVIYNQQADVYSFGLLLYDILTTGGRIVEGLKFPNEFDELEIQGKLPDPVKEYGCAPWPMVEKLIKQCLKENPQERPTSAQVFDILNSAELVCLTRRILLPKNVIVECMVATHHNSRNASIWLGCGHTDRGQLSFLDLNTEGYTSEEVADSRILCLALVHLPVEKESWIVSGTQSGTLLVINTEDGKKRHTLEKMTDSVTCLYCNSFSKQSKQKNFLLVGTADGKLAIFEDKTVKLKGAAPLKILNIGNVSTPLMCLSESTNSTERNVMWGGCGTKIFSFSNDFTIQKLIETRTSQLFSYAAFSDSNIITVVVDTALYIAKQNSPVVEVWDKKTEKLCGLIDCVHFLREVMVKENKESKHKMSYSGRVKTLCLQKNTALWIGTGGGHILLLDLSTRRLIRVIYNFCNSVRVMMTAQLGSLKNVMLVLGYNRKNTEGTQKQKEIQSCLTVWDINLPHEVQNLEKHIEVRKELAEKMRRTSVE

| IC50 [nM] | SMILES |
| --- | --- |
| 42 | CCCSc1sc(-c2cc[nH]n2)c2c1C(=O)NCC2C (stereo in doubt) [Example 28, (7S)-7-methyl-3-(propylsulfanyl)-1-(1H-pyrazol-3-yl)-6,7-dihydrothieno[3,4-c]pyridin-4(5)-one] |
| 31 | CC1CNC(=O)c2c(SCC3CC3)sc(-c3cc[nH]n3)c21 (stereo in doubt) [Example 29] |
| 460 | CSc1sc(-c2cc[nH]n2)c2c1C(=O)NCC2 [Example 1, 3-(Methylsulfanyl)-1-(1H-pyrazol-3-yl)-6,7-dihydrothieno[3,4-c]pyridin-4(5H)-one] |
| 260 | CSc1sc(-c2cc[nH]n2)c2c1C(=O)NC(Cc1ccccc1)C2 (centres unmarked) [Example 2, 6-benzyl-3-(methylsulfanyl)-1-(1H-pyrazol-3-yl)-6,7-dihydrothieno[3,4-c]pyridin-4(5)-one] |
| 260 | CSc1sc(-c2cc[nH]n2)c2c1C(=O)NC(C)C2 (centres unmarked) [Example 3, 6-methyl-3-(methylsulfanyl)-1-(1H-pyrazol-3-yl)-6,7-dihydrothieno[3,4-c]pyridin-4(5)-one] |
| 4800 | CSc1sc(-c2cc[nH]n2)c2c1C(=O)N(C(=O)OC(C)(C)C)C(C)C2 (centres unmarked) [Example 4] |
| 160 | CSc1sc(-c2cc[nH]n2)c2c1C(=O)NC1(CCC1)C2 [Example 5, 3′-(methylsulfanyl)-4′-oxo-1′-(1H-pyrazol-3-yl)-7′H-spiro[cyclobutane-1,6′-thieno[3,4-1]pyridine]-4′(5′H)-one] |
| 3100 | CSc1sc(-c2cc[nH]n2)c2c1C(=O)N(C(=O)OC(C)(C)C)C1(CCC1)C2 [Example 6, tert-butyl-6-methyl-3′-(methylsulfanyl)-4′-oxo-1′-(1H-pyrazol-3-yl)-7′H-spiro[cyclobutane-1,6′-thieno[3,4-1]pyridine]-5′(4′H)-carboxylate] |
| 350 | CSc1sc(-c2cc[nH]n2)c2c1C(=O)NC1(CC1)C2 [Example 7, 3′-(methylsulfanyl)-4′-oxo-1′-(1H-pyrazol-3-yl)-7′H-spiro[cyclopropanc-1,6′-thieno[3,4-1]pyridine]-4′(5′H)-one] |
| 220 | CSc1sc(-c2cc[nH]n2)c2c1C(=O)NC1(CCCC1)C2 [Example 8, 3′-(methylsulfanyl)-4′-oxo-1′-(1H-pyrazol-3-yl)-7′H-spiro[cyclopentane-1,6′-thieno[3,4-1]pyridine]-4′(5′H)-one] |
| 190 | CSc1sc(-c2cc[nH]n2)c2c1C(=O)NC(C(F)(F)F)C2 (centres unmarked) [Example 9, 6-trifiuoromethyl-3-(methylsulfanyl)-1-(1H-pyrazol-3-yl)-6,7-dihydrothieno[3,4-c]pyridin-4(5)-one] |
| 340 | COCC1Cc2c(-c3cc[nH]n3)sc(SC)c2C(=O)N1 (centres unmarked) [Example 11, 6-methoxymethyl-3-(methylsulfanyl)-1-(1H-pyrazol-3-yl)-6,7-dihydrothieno[3,4-c]pyridin-4(5)-one] |
| 300 | CSc1sc(-c2cc[nH]n2)c2c1C(=O)NC(CC(C)C)C2 (centres unmarked) [Example 12, 6-(2-methylpropyl)-3-(methylsulfanyl)-1-(1H-pyrazol-3-yl)-6,7-dihydrothieno[3,4-c]pyridin-4(5)-one] |
| 450 | CSc1sc(-c2cc[nH]n2)c2c1C(=O)NC(C1CC1)C2 (centres unmarked) [Example 13, 6-cyclopropyl-3-(methylsulfanyl)-1-(1H-pyrazol-3-yl)-6,7-dihydrothieno[3,4-c]pyridin-4(5)-one] |
| 190 | CSc1sc(-c2cc[nH]n2)c2c1C(=O)NC(C1CCC1)C2 (centres unmarked) [Example 14, 6-cyclobutyl-3-(methylsulfanyl)-1-(1H-pyrazol-3-yl)-6,7-dihydrothieno[3,4-c]pyridin-4(5)-one] |
| 240 | CSc1sc(-c2cc[nH]n2)c2c1C(=O)N[C@H](c1cc(F)cc(F)c1)C2 [Example 16, (6S)-3-(methylsulfanyl)-6-(3,5-difluorophenyl)-1-(1H-pyrazol-3-yl)-6,7-dihydrothieno[3,4-c]pyridin-4(5)-one] |
| 78 | CSc1sc(-c2cc[nH]n2)c2c1C(=O)N[C@H](c1cccc(F)c1)C2 [Example 17, (6S)-3-(methylsulfanyl)-6-(3-fluorophenyl)-1-(1H-pyrazol-3-yl)-6,7-dihydrothieno[3,4-c]pyridin-4(5)-one] |
| 85 | CSc1sc(-c2cc[nH]n2)c2c1C(=O)N[C@H](c1ccc(F)cc1)C2 [Example 18, (6S)-3-(methylsulfanyl)-6-(4-fluorophenyl)-1-(1H-pyrazol-3-yl)-6,7-dihydrothieno[3,4-c]pyridin-4(5)-one] |
| 1500 | CSc1sc(-c2cc[nH]n2)c2c1C(=O)N[C@H](c1cccnc1)C2 [Example 19, (6S)-3-(methylsulfanyl)-6-(3-pyridyl)-1-(1H-pyrazol-3-yl)-6,7-dihydrothieno[3,4-c]pyridin-4(5)-one] |
| 7900 | CSc1sc(-c2cc[nH]n2)c2c1C(=O)NC(C(=O)OC(C)(C)C)C2 (centres unmarked) [Example 20, tert-butyl-3-(methylsulfanyl)-4-oxo-1-(1H-pyrazol-3-yl)-4,5,6,7-tetrahydrothieno[3,4-c]pyridine-carboxylate] |
| 160 | CSc1sc(-c2cc[nH]n2)c2c1C(=O)NC[C@@H]2C [Example 21, (7R)-7-methyl-3-(methylsulfanyl)-1-(1H-pyrazol-3-yl)-6,7-dihydrothieno[3,4-c]pyridin-4(5)-one] |
| 400 | CSc1sc(-c2cc[nH]n2)c2c1C(=O)NC[C@H]2C [Example 22, (7S)-7-methyl-3-(methylsulfanyl)-1-(1H-pyrazol-3-yl)-6,7-dihydrothieno[3,4-c]pyridin-4(5)-one] |
| 150 | CSc1sc(-c2cc[nH]n2)c2c1C(=O)NCC2Cc1ccccc1 (centres unmarked) [Example 25, 7-benzyl-3-(methylsulfanyl)-1-(1H-pyrazol-3-yl)-6,7-dihydrothieno[3,4-c]pyridin-4(5H)-one] |
| 300 | O=C1NCCc2c(-c3cc[nH]n3)sc(SCC3CC3)c21 [Example 26, 3-[(cyclopropylmethyl)sulfanyl]-1-(1H-pyrazol-3-yl)-6,7-dihydrothieno[3,4-c]pyridin-4(5)-one] |
| 290 | O=C1NCCc2c(-c3cc[nH]n3)sc(SC3CCCC3)c21 [Example 30, 3-(Cyclopentylsulfanyl)-1-(1H-pyrazol-3-yl)-6,7-dihydrothieno[3,4-c]pyridin-4(5H)-one] |
| 35 | CC1Cc2c(-c3cc[nH]n3)sc(SC3CCCC3)c2C(=O)N1 (centres unmarked) [Example 31, 6-methyl-3-(cyclopentylsulfanyl)-1-(1H-pyrazol-3-yl)-6,7-dihydrothieno[3,4-c]pyridin-4(5)one] |
| 140 | O=C1NC2(CCC2)Cc2c(-c3cc[nH]n3)sc(SC3CCCC3)c21 [Example 32, 3′-(cyclopentylsulfanyl)-4′-oxo-1′-(1H-pyrazol-3-yl)-7′H-spiro[cyclobutane-1,6′-thieno[3,4-1]pyridine]-4′(5′H)-one] |
| 530 | O=C1NC(Cc2ccccc2)Cc2c(-c3cc[nH]n3)sc(SC3CCCC3)c21 (centres unmarked) [Example 33, 6-benzyl-3-(cyclopentylsulfanyl)-1-(1H-pyrazol-3-yl)-6,7-dihydrothieno[3,4-c]pyridin-4(5)-one] |
| 110 | CC(C)CC1Cc2c(-c3cc[nH]n3)sc(SC3CCCC3)c2C(=O)N1 (centres unmarked) [Example 34, 6-(2-methylpropyl)-3-(cyclopentylsulfanyl)-1-(1H-pyrazol-3-yl)-6,7-dihydrothieno[3,4-c]pyridin-4(5)-one] |
